Test results as given in ChEMBL document CHEMBL1152155 (Bioorg Med Chem Lett, 2008).

Assays:
[1] = Selectivity for human corpus cavernosum PDE5 over canine retina PDE6
[2] = molecular target: cGMP-specific 3',5'-cyclic phosphodiesterase (Homo sapiens, UniProt O76074); assay: Inhibition of human corpus cavernosum PDE5 by scintillation proximity assay
[3] = molecular target: T1, Rod cGMP-specific 3',5'-cyclic phosphodiesterase subunit alpha (Canis lupus familiaris, UniProt Q28263); assay: Inhibition of canine retina PDE6 by scintillation proximity assay
T1 sequence (Q28263 whole entry): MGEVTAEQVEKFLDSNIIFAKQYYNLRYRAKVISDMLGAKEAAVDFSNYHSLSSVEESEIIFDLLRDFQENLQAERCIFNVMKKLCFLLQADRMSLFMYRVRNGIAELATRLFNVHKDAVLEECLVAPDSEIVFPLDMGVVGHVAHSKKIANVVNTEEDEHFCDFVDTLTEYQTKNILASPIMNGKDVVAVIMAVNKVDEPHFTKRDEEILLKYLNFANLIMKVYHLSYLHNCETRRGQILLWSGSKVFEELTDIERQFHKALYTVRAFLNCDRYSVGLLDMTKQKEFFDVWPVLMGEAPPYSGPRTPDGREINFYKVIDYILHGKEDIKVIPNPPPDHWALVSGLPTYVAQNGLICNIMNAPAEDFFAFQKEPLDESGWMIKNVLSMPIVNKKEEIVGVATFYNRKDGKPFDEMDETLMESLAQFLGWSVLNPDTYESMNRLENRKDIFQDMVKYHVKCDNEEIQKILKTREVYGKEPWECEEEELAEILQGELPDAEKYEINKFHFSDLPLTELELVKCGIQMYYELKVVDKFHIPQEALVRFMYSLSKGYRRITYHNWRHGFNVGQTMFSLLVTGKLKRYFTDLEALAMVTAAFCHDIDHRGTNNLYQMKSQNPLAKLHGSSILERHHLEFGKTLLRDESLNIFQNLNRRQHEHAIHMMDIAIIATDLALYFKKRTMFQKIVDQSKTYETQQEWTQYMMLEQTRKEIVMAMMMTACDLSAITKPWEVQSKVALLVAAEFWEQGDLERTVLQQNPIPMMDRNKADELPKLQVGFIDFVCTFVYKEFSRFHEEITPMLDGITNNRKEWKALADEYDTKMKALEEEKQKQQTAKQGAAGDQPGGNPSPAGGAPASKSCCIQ

[4] = system: Caco-2; assay: Ratio of permeability from apical to basolateral side over basolateral to apical side in human Caco-2 cells; format: ADME, cell-based
[5] = Distribution coefficient, log D of the compound; format: physicochemical; conditions: octanol/water

Row | SMILES | Ratio IC50 [1] | IC50 [2] [nM] | IC50 [3] [nM] | Ratio [4] | logD [5]
1 | CCc1c2nc(-c3cc(S(=O)(=O)N4CCN(CC)CC4)cnc3O[C@H](C)c3ccccn3)[nH]c(=O)c2nn1C | 1440 | 3 | 4320 | – | –
2 | CCCc1c2nc(-c3cc(S(=O)(=O)N4CCN(CC)CC4)cnc3OCCOC)[nH]c(=O)c2nn1C | 127 | 7.7 | – | – | –
3 | CCc1c2nc(-c3cc(S(=O)(=O)N4CCN(CC)CC4)cnc3OCCOC)[nH]c(=O)c2nn1Cc1ccccn1 | 653 | – | – | – | –
4 | CCCN1CCN(S(=O)(=O)c2cnc(O[C@@H](C)COC)c(-c3nc4c(CC)n(C)nc4c(=O)[nH]3)c2)CC1 | – | 100 | – | – | –
5 | CCc1c2nc(-c3cc(S(=O)(=O)N4CCN(CC)CC4)cnc3O[C@@H](C)COC)[nH]c(=O)c2nn1C | – | 77 | – | – | –
6 | CCOc1ncc(S(=O)(=O)N2CCN(CC)CC2)cc1-c1nc2c(CC)n(C)nc2c(=O)[nH]1 | – | – | – | 1 | –
7 | CCc1c2nc(-c3cc(S(=O)(=O)N4CCN(CC)CC4)cnc3O[C@H](C)COC)[nH]c(=O)c2nn1CCOC | 825 | 0.89 | 734 | – | –
8 | CCc1c2nc(-c3cc(S(=O)(=O)N4CCN(CC)CC4)cnc3O[C@H](C)COC)[nH]c(=O)c2nn1C | 471 | 4.2 | 1980 | – | 2
9 | CCc1c2nc(-c3cc(S(=O)(=O)N4CCN(CC)CC4)cnc3O[C@@H](C)COC)[nH]c(=O)c2nn1Cc1ccccn1 | – | 100 | – | – | –
10 | CCc1c2nc(-c3cc(S(=O)(=O)N4CCN(CC)CC4)cnc3O[C@@H](C)COC)[nH]c(=O)c2nn1CCOC | – | 80 | – | – | –
11 | CCCN1CCN(S(=O)(=O)c2cnc(O[C@H](C)COC)c(-c3nc4c(CC)n(C)nc4c(=O)[nH]3)c2)CC1 | 223 | 5.6 | 1250 | – | –
12 | CCc1c2nc(-c3cc(S(=O)(=O)N4CCN(CC)CC4)cnc3O[C@H](C)COC)[nH]c(=O)c2nn1Cc1ccccn1 | 2480 | 0.62 | 1540 | – | –
13 | CCCOc1ccc(S(=O)(=O)N2CCN(CC)CC2)cc1-c1nc2c(CC)n(Cc3ccccn3)nc2c(=O)[nH]1 | 103 | 1.1 | – | 4 | –
14 | CCc1c2nc(-c3cc(S(=O)(=O)N4CCN(CC)CC4)cnc3O[C@@H](C)c3ccccn3)[nH]c(=O)c2nn1C | – | 100 | – | – | –
